Data: patent US9278134B2, “Dual functioning ionic liquids and salts thereof” (priority 2008, dated 2016)

Key:
Assay type in all cases: physicochemical
[1] = Walden plot: ΔW / degree of ionicity; details: for degree of ionicity (ionized): estimated from the Walden plot (FIG. 7)
Text: Many examples of liquid organic salts are far from fully ionized. Instead, they form ion pairs and aggregates of ions in the liquid state and are better described as Liquid Ion Pairs than “Ionic Liquids”. The distinction between these states can be made on the basis of the behavior of the transport property data when plotted in a Walden plot. The Walden plot is a graph of log equivalent conductivity (corrected for molar volume) vs. log fluidity and thus may be used to estimate the degree of association cations and anions (as correlated motion of cation and anion clusters). […] Liquid Ion Pairs lie beyond this region, i.e., more than one order of magnitude away from the Ideal line. Such liquid salts are less than 10% ionized. Examples of such liquid salts of therapeutic ions include propanthaline tosylate which is about 1% ionized, as estimated from the Walden plot (FIG. 7).
With addition of 25 weight % water, ΔW value decreased. This is true for all of the propantheline p-toluenesulfonate/water systems studied.

[2] = Conductivity of propantheline p-toluenesulfonate (PtTos)/water composites
Text: (§1) Viscosity, conductivity and ΔW values for various propantheline p-toluenesulfonate (PtTos)/water composites.

[3] = Viscosity of propantheline p-toluenesulfonate (PtTos)/water composites; details: * instrument limit
Text: as §1

## CC(C)[N+](C)(CCOC(=O)C1c2ccccc2Oc2ccccc21)C(C)C [PtTos pure, Propantheline p-Toluenesulfonate]
[1]; FIG. 7
  distance below the reference line in the Walden plot: 2 log units
[1]; Walden plot, PtTos/water composites
  ΔW (distance form the ideal line): 2.0
[1]
  degree of ionicity (ionized): approximately 1%
[1]; listed as propanthaline tosylate
  degree of ionicity (ionized): about 1%
[2]
  Conductivity (S cm^−1): 5.41 × 10^−7 S cm^−1
[3]
  Viscosity (mPa · s) ± 1%: >2000* mPa · s
